The subject of data set [1] is HT-29. In words: Antiproliferative activity against human HT-29 cells assessed as cell growth inhibition incubated for 72 hrs by MTT assay. Type of data set: functional. For orientation: Tetrazolium assays rely on reduction of a dye to a coloured formazan, in cell work by metabolically active cells.
Data set [2] has as its system U-87 MG. In words: Antiproliferative activity against human U87 cells assessed as cell growth inhibition incubated for 72 hrs by MTT assay. Type of data set: functional, U-87MG ATCC.
For data set [3], the system named is MCF7. In words: Antiproliferative activity against human MCF7 cells assessed as cell growth inhibition incubated for 72 hrs by MTT assay. Type of data set: functional.
The test system of data set [4] is A2780. In words: Antiproliferative activity against human A2780 cells assessed as cell growth inhibition incubated for 72 hrs by MTT assay. The data set is classed as functional.
Data set [5] has as its system NCI-H460. In words: Antiproliferative activity against human NCI-H460 cells assessed as cell growth inhibition incubated for 72 hrs by MTT assay. The data set is classed as functional.
The subject of data set [6] is A-431. In words: Antiproliferative activity against human A-431 cells assessed as cell growth inhibition incubated for 72 hrs by MTT assay. Type of data set: functional.
Data set [7] deals with DU-145. In words: Antiproliferative activity against human DU-145 cells assessed as cell growth inhibition incubated for 72 hrs by MTT assay. Type of data set: functional.
The subject of data set [8] is BE(2)-C. In words: Antiproliferative activity against human BE2C cells assessed as cell growth inhibition incubated for 72 hrs by MTT assay. The data set is classed as functional.
Data set [9] in a line: Antiproliferative activity against human SJG2 cells assessed as cell growth inhibition incubated for 72 hrs by MTT assay. The note with it: SJ-G2. The data set is classed as functional.
Data set [10] deals with MIA PaCa-2. In words: Antiproliferative activity against human MIA PaCa-2 cells assessed as cell growth inhibition incubated for 72 hrs by MTT assay. Type of data set: functional.
Data set [11] in a line: Cytotoxicity against human MCF-10A cells assessed as cell growth inhibition incubated for 72 hrs by MTT assay. The data set is classed as toxicity, cell-based.
The test system of data set [12] is HT-29. In words: Antiproliferative activity against human HT-29 cells assessed as cell growth inhibition at 25 uM incubated for 72 hrs by MTT assay relative to control. The data set is classed as functional.
The test system of data set [13] is U-87 MG. In words: Antiproliferative activity against human U87 cells assessed as cell growth inhibition at 25 uM incubated for 72 hrs by MTT assay relative to control. The data set is classed as functional, U-87MG ATCC.
The test system of data set [14] is MCF7. In words: Antiproliferative activity against human MCF7 cells assessed as cell growth inhibition at 25 uM incubated for 72 hrs by MTT assay relative to control. The data set is classed as functional.
The test system of data set [15] is A2780. In words: Antiproliferative activity against human A2780 cells assessed as cell growth inhibition at 25 uM incubated for 72 hrs by MTT assay relative to control. Type of data set: functional.
Data set [16] deals with NCI-H460. In words: Antiproliferative activity against human NCI-H460 cells assessed as cell growth inhibition at 25 uM incubated for 72 hrs by MTT assay relative to control. Type of data set: functional.
Data set [17] relates to A-431. In words: Antiproliferative activity against human A-431 cells assessed as cell growth inhibition at 25 uM incubated for 72 hrs by MTT assay relative to control. Type of data set: functional.
Data set [18] has as its system DU-145. In words: Antiproliferative activity against human DU-145 cells assessed as cell growth inhibition at 25 uM incubated for 72 hrs by MTT assay relative to control. The data set is classed as functional.
Data set [19] concerns BE(2)-C. In words: Antiproliferative activity against human BE2C cells assessed as cell growth inhibition at 25 uM incubated for 72 hrs by MTT assay relative to control. The data set is classed as functional.
A short description of data set [20]: Antiproliferative activity against human SJG2 cells assessed as cell growth inhibition at 25 uM incubated for 72 hrs by MTT assay relative to control. The data set is classed as functional. The note with it: SJ-G2.
For data set [21], the system named is MIA PaCa-2. In words: Antiproliferative activity against human MIA PaCa-2 cells assessed as cell growth inhibition at 25 uM incubated for 72 hrs by MTT assay relative to control. Type of data set: functional.
Data set [22] can be described thus: Cytotoxicity against human MCF-10A cells assessed as cell growth inhibition at 25 uM incubated for 72 hrs by MTT assay relative to control. The data set is classed as toxicity, cell-based.

By GI50 is commonly meant the concentration at which growth is held to half of that of the control. For orientation: inhibition means the relative decrease from the control value, in per cent.

With `O=C1NC(c2ccc(Br)cc2)Nc2ccccc21` (stereo unspecified), the GI50 in [1] came out at 2.9 µM; in [2] it was 4.7 µM; in [3], 3.6 µM; in [4], 3.1 µM; in data set [5] it was 3.2 µM; in data set [6], 3.1 µM. For the same molecule, the GI50 in data set [7] was 3.3 µM; in data set [8], 2.6 µM; in data set [9] it was 2.5 µM; in data set [10] it was 3.2 µM. Further, in data set [11], the GI50 at 72 h is 4 µM. The inhibition at 25 µM in [12] was > 100%; in data set [13], 88%; in [14], 89%; in data set [15], 99%; in [16] it was 97%; in data set [17], > 100%. Besides, the inhibition at 25 µM in [18] was > 100%; in [19], > 100%; in data set [20], > 100%; in data set [21], 90%. For the same molecule, in data set [22], the inhibition at 72 h, 25 µM turned out to be 95%.

Consider `COC(=O)c1cccc(/C=C/c2nc3ccccc3c(=O)[nH]2)c1`, for which the 50% growth inhibitory concentration (GI50) in data set [1] was determined as 3.8 µM; in data set [2], 32 µM; in [3] it was 2.2 µM; in data set [4], 4.8 µM; in data set [5], 7.2 µM; in data set [6], 6.2 µM. The concentration for 50% growth inhibition (GI50) in [7] came out at 16 µM; in data set [8], 8.5 µM; in [9] it was 5.5 µM; in data set [10], 5.6 µM. Moreover, the 50% growth inhibitory concentration (GI50) at 72 h in data set [11] came out at 8.5 µM. Further, the inhibition at 25 µM in data set [12] stood at 40%; in data set [13], 11%; in [14], 77%; in data set [15], 16%; in data set [16] it was 34%; in [17] it was 8%. The inhibition at 25 µM is 32% in [18], 47% in [19], 43% in data set [20] and 39% in data set [21]. Besides, the inhibition at 72 h, 25 µM in data set [22] worked out at 48%.

For `O=C1NC(c2ccc(O)cc2)Nc2ccccc21` (stereo unspecified), the GI50 in data set [1] was determined as 3.7 µM; in data set [2], 16 µM; in data set [3], 12 µM; in data set [4], 3.2 µM; in data set [5], 10 µM; in data set [6] it was 3.2 µM. Besides, the GI50 in data set [7] was 10 µM; in [8], 4.1 µM; in data set [9] it was 8.9 µM; in [10] it was 8.8 µM. Moreover, the 50% growth inhibitory concentration (GI50) at 72 h in data set [11] came to 9.9 µM. Moreover, the inhibition at 25 µM in data set [12] is > 100%; in [13] it was 72%; in data set [14], 55%; in data set [15] it was 95%; in [16] it was 88%; in data set [17], 108%. Further, the inhibition at 25 µM was 90% in data set [18], 100% in data set [19], > 100% in data set [20] and 84% in data set [21]. In [22], the inhibition at 72 h, 25 µM amounted to 91%.

In the case of `CC(C)(C)c1ccc(C2NC(=O)c3ccccc3N2)cc1` (stereo unspecified), the 50% growth inhibitory concentration (GI50) in [1] was 9.7 µM; in [2], > 50 µM; in data set [3], 8.4 µM; in data set [4], 15 µM; in [5], > 50 µM; in [6] it was > 50 µM. Also, the concentration for 50% growth inhibition (GI50) in data set [7] is 35 µM; in data set [8], 20 µM; in [9], > 50 µM; in data set [10], 14 µM. Moreover, in data set [11], the GI50 at 72 h was found to be 19 µM. In addition, the inhibition at 25 µM in data set [12] is 79%; in [13], 40%; in [14] it was > 100%; in [15] it was 63%; in data set [16] it was 44%; in data set [17], 32%. The inhibition at 25 µM was found to be 47% in data set [18], 47% in data set [19], 46% in data set [20] and 60% in [21]. The inhibition at 72 h, 25 µM in data set [22] amounted to 53%.

Consider `O=c1[nH]c(/C=C/c2cccc(O)c2)nc2ccccc12`, for which the GI50 in [1] turned out to be 5.9 µM; in data set [2], 8.9 µM; in data set [3] it was 1.3 µM; in [4] it was 3.1 µM; in data set [5], 2.6 µM; in data set [6], 3 µM. Besides, the GI50 is 1.9 µM in data set [7], 1.8 µM in data set [8], 2.5 µM in data set [9] and 2.9 µM in data set [10]. For the same molecule, in data set [11], the concentration for 50% growth inhibition (GI50) at 72 h worked out at 3.1 µM. For the same molecule, the inhibition at 25 µM in data set [12] is > 100%; in [13] it was 73%; in data set [14] it was > 100%; in data set [15] it was > 100%; in data set [16], > 100%; in data set [17], > 100%. For the same molecule, the inhibition at 25 µM in data set [18], in [19], in [20] and in data set [21] was > 100% each time. Moreover, the inhibition at 72 h, 25 µM in data set [22] came to 97%.

Turning to `O=C1NC(/C=C/c2ccco2)Nc2ccccc21` (stereo unspecified), the GI50 in [1] came out at 2.2 µM; in [2], 4.3 µM; in [3] it was 7.4 µM; in data set [4], 3 µM; in data set [5], 3.3 µM; in data set [6] it was 2.1 µM. Further, the concentration for 50% growth inhibition (GI50) is 4 µM in [7], 2.6 µM in [8], 3 µM in data set [9] and 3.6 µM in data set [10]. The concentration for 50% growth inhibition (GI50) at 72 h in [11] was 3.4 µM. Besides, the inhibition at 25 µM was 90% in [12]; 99% in [13]; 83% in [14]; > 100% in data set [15]; 93% in data set [16]; > 100% in data set [17]. The inhibition at 25 µM came to 100% in data set [18], 100% in data set [19], 100% in data set [20] and 93% in [21]. For the same molecule, the inhibition at 72 h, 25 µM in [22] worked out at 100%.

As to `O=c1[nH]c(/C=C/c2ccc(Br)cc2)nc2ccccc12`, the GI50 in [1] was 3.2 µM; in data set [2], 13 µM; in data set [3] it was 3.1 µM; in data set [4], 3.6 µM; in [5] it was 11 µM; in [6], 11 µM. The GI50 in data set [7] was 8.9 µM; in data set [8] it was 6.4 µM; in data set [9], 15 µM; in data set [10], 14 µM. In addition, the concentration for 50% growth inhibition (GI50) at 72 h in [11] worked out at 4.6 µM. The inhibition at 25 µM is 94% in data set [12]; 83% in data set [13]; > 100% in data set [14]; 93% in data set [15]; 70% in [16]; 78% in data set [17]. In addition, the inhibition at 25 µM in data set [18] worked out at 77%; in [19] it was 78%; in data set [20], 76%; in data set [21], 68%. The inhibition at 72 h, 25 µM in data set [22] came to 86%.

Consider `O=C1NC(c2cccc(Br)c2)Nc2ccccc21` (stereo unspecified), for which the 50% growth inhibitory concentration (GI50) in data set [1] was found to be 2.6 µM; in data set [2], 4.1 µM; in data set [3], 2 µM; in [4] it was 2.6 µM; in [5], 1.9 µM; in [6], 2.7 µM. Moreover, the 50% growth inhibitory concentration (GI50) was 2.9 µM in data set [7], 2.4 µM in data set [8], 1.9 µM in data set [9] and 3.2 µM in data set [10]. In addition, the GI50 at 72 h in data set [11] was 3.9 µM. The inhibition at 25 µM in [12] was > 100%; in data set [13], 98%; in [14], 104%; in [15], 99%; in [16], 101%; in data set [17] it was > 100%. The inhibition at 25 µM in data set [18] was > 100%; in data set [19] it was > 100%; in [20], > 100%; in data set [21] it was 90%. Moreover, the inhibition at 72 h, 25 µM in data set [22] turned out to be 99%.

Values taken from ChEMBL document CHEMBL5532698, “2,3-Dihydroquinazolin-4(1H)-ones and quinazolin-4(3H)-ones as broad-spectrum cytotoxic agents and their impact on tubulin polymerisation” (RSC Med Chem, 2024).
